Reference: patent publication US6762189B1, “5-pyrimidinecarboxamide derivatives and the pharmaceutical compositions containing said derivatives” (Dong Wha Pharm. Ind. Co., Ltd., priority 1999, dated 2004)

Experiments:
HBV polymerase = biological target: T1, HBV polymerase (Hepatitis B virus genotype A2 subtype adw2, UniProt P03159); assay: In vitro reverse transcription activity of HBV polymerase (ELISA-type, DIG/biotin nucleotides); type: biochemical; settings: for inhibition at 0.01 µg/mL / inhibition at 0.1 µg/mL / inhibition at 1 µg/mL: read-out: Inhibition activity on HBV-RT (%)
T1 construct: made in house; host or cells: E. coli
Method: The following in vitro experiment was performed to determine the effect of the compounds of formula 1 on the activity of HBV polymerase during reverse transcription.
The present inventors submitted application for a patent concerning HBV polymerase genetically expressed in and separated from E. coli, the process of its preparation, and the method to measure the enzyme activities (KR 94-3918, KR 96-33998). In the present experiments HBV polymerase was used which had been expressed in E. coli as stated above.
The method used in the present invention to measure in vitro reverse transcribing activities of HBV polymerase is as follows. Basic principles are the same as for ELISA. Nucleotides with biotin or digoxigenin group attached are included as substrates and anti-DIG antibodies attached to peroxidase enzyme recognize the polymerized substrates.
To the wells coated with streptavidin, 20 μl of HBV polymerase, 20 μl of reaction mixture (10 μM each of DIG-UTP and Biotin-UTP, 46 mM Tris-HCl, 266 mM KCl, 27.5 mM MgCl2, 9.2 mM DTT substrate/primer hybrid), and 20 μl of test compound (added to 1, 0.1, and 0.01 μg/ml) were added and allowed to react a 22° C. for 15 hrs. During this reaction, HBV polymerase catalyzes DNA synthesis and digoxigenin and biotin attached to nucleotides form bonds with streptavidin coated on the bottom of wells. When the reaction was done, each well was washed with 250μl of cleaning buffer (pH 7.0) for 30 seconds, which was repeated five times to remove remaining impurities. 200 μl of anti-DIG-POD antibody was added to each well and allowed to react for 1 hr at 37° C., and the wells were washed with cleaning buffer to remove impurities. 200μl each of ABTS™, a substrate of peroxidase, was then added and allowed to react at room temperature for 30 min. Absorbance was measured at 405 nm using ELISA reader.
The percentage of reduction in HBV polymerase activities for reverse transcription was calculated using the group without test compound as a control and the results are shown in Table 3.

HBV = assay: Inhibition of HBV proliferation in HBV producing cell line HepG 2.2.15 (competitive PCR of culture supernatant); type: cell-based, Hepatitis B virus; settings: HepG 2.2.15, one week; for inhibition at 0.01 µg/mL / inhibition at 0.1 µg/mL / inhibition at 1 µg/mL: Hepatitis B virus, HepG2.2.15, 168 h, read-out: Inhibitory effect on the HBV proliferation, Inhibition activity on HBV-RT (%)
Method: The following experiment was performed to determine inhibitory effects of compounds of formula on the proliferation of HBV producing cell line.
To test for antiviral effect, replication and proliferation of HBV were measured in HepG 2.2.15, a human liver cancer cell line.
The cell concentration was adjusted to 1×10^5 cells/ml and 1 ml was added to each well of a 24-well cell culture plate, which was then kept in a culture box for 3-4 days at 37° C. under 5% CO2 until cells grew sufficiently, changing culture medium everyday. When the cells matured sufficiently, the test compounds were added to the final concentrations of 0.01, 0.1, and 1 μg/ml. One week after the addition of test compounds, he culture solution was centrifuged at 5,000 rpm for 10 min. 25 μl of supernatant was transferred to a new tube and 5 μl of lysis solution [0.54N NaOH, 0.06% NP40] was added to each tube. After keeping the tube at 37° C. for 1 hr, 30 μl . of neutralizing solution [0.09NHCl, 0.1MTris-HCl, pH7.4] was added as a reaction solution for competitive polymerase chain reaction (PCR).
PCR was performed using genetic sequence of HBV core protein as a matrix. PCR reaction was carried out by adding 1 unit of Taq polymerase enzyme to 25 pmol of each primer, 250 μM dNTP, 5 μl of PCR reaction solution [0.54N NaOH, 0.06% NP40, 0.09N HCl, 0.1M Tris-HCl, pH 7.4].
DNA polymerized by PCR was electrophoresed on Agarose gel and quantitatively analyzed using an image analyzer (Gel Dcc 1000, Bio-Rad) in order to evaluate the effect of compounds of the present invention on the reduction of HBV proliferation.
3TC (lamivudine) was used as a positive control at the same concentrations as those of the test compounds. The percentage of reduction in HBV proliferation was calculated using the group without test compound as a control and the results are represented in Table 4.

[1] = biological target: T2, HIV reverse transcriptase (Human immunodeficiency virus type 1 group M subtype B, UniProt P04585); assay: In vitro HIV reverse transcriptase activity (non-radioactive reverse transcriptase assay kit); type: biochemical
T2 construct: activities of HIV reverse transcriptase; purchased Boehringer Mannheim
Method: The following in vitro experiments were done to determine the effect of compounds of formula 1 on the reduction of HIV enzyme activities in reverse transcription.
Non-radioactive reverse transcriptase assay kit (Boehringer Mannheim) was used in the measurement of in vitro transcriptase activities. 20 μl (40 ng) of HIV transcriptase and 20 μl of reaction mixture containing matrix-primer hybrid poly (A) oligo (dT) 15, DIG(digoxigenin)-dUTP, biotin-dUTP, and TTP were added to wells coated with streptavidin. Test compounds were also added at the final concentrations of 0.1 and 1 μg/ml and allowed to react at 37° C. for 1 hr. At this time, DNA is formed from RNA by the action of HIV transcriptase, forming bonds with streptavidin coated on the bottom of wells because of digoxigenin and biotin moieties attached to nucleotides.
When the reaction was completed, each well was washed with 250 μl. of cleaning buffer (pH 7.0) for 30 sec. five times to remove remaining impurities. 200 μl of anti-DIG-POD […] was added to each well, allowed to react at 37° C. for 1 hr and washed as above to remove impurities. 200 μl of ABTS™, a substrate for peroxidase, was added to each well and allowed to react at room temperature for 30min. Absorbance at 405 nm was then read for each solution using ELISA reader and used for quantitative determination of inhibitory effect on the HIV transcriptase activities. The percentage of reduction in the activities of HIV reverse transcriptase was calculated using the group without test compound as control and the results are represented in Table 5.

T1 sequence (P03159 whole entry): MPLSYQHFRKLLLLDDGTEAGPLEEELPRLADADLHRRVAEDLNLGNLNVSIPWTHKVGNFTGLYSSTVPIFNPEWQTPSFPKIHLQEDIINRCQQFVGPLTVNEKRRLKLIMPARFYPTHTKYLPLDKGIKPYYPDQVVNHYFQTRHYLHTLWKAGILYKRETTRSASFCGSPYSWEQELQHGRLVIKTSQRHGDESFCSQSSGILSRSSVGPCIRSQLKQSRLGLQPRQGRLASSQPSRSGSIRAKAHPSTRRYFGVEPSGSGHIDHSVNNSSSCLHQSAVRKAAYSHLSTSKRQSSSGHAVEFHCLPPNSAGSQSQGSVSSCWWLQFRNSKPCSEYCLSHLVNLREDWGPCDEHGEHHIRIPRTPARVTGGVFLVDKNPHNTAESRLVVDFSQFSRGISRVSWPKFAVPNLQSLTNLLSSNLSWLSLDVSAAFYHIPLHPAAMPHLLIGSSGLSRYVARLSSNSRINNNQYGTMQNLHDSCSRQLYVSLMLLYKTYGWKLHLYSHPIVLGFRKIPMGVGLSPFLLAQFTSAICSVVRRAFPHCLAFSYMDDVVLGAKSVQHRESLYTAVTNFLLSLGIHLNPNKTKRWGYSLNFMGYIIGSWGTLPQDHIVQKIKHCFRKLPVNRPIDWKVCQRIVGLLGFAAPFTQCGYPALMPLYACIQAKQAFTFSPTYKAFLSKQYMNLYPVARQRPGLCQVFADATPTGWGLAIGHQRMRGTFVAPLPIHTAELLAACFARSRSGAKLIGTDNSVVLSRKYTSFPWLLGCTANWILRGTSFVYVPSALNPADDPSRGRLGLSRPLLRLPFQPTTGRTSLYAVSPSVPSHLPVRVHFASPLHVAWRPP

Compound	Inhibitory effect on the activities of HIV reverse transcriptase, Inhibition activity on HBV-RT (%) ([1]; 0.1 μg/ml test compound)	inhibition at 0.01 µg/mL (HBV polymerase; 0.01 μg/ml test compound)	inhibition at 0.1 µg/mL (HBV polymerase; 0.1 μg/ml test compound)	inhibition at 1 µg/mL (HBV polymerase; 1 μg/ml test compound)	inhibition at 0.01 µg/mL (HBV; 0.01 μg/ml)	inhibition at 0.1 µg/mL (HBV; 0.1 μg/ml)	inhibition at 1 µg/mL (HBV; 1 μg/ml)	also measured
CSc1ncc(C(=O)NN2CCOCC2)c(Nc2ccc3[nH]ncc3c2)n1 (hydrate or solvate) [Example 35, 4-(1H-5-indazolylamino)-2-methylthio-N-(4-morpholinyl)-5-pyrimidinecarboxamide]	–	–	–	–	–	–	–	melting point: 239 to 242 °C
CSc1ncc(C(N)=O)c(Nc2ccc3[nH]ncc3c2)n1 [Example 1, 4-(1H-5-Indazolylamino)-2-methyl thio-5-pyrimidinecarboxamide]	44%	–	–	–	–	–	–	Inhibition activity on HBV-RT (%) (HBV polymerase; 0.01 μg/ml test compound): 40%; Inhibition activity on HBV-RT (%) (HBV polymerase; 0.1 μg/ml test compound): 63%; Inhibition activity on HBV-RT (%) (HBV polymerase; 1 μg/ml test compound): 90%; Inhibitory effect on the HBV proliferation, Inhibition activity on HBV-RT (%) (HBV; 0.01 μg/ml): 25%; Inhibitory effect on the HBV proliferation, Inhibition activity on HBV-RT (%) (HBV; 0.1 μg/ml): 53%; Inhibitory effect on the HBV proliferation, Inhibition activity on HBV-RT (%) (HBV; 1 μg/ml): 82%; Inhibitory effect on the activities of HIV reverse transcriptase, Inhibition activity on HBV-RT (%) ([1]; 1 μg/ml test compound): 65%
CSc1ncc(C(N)=O)c(Nc2ccc3cn[nH]c3c2)n1 [Example 2, 4-(1H-6-Indazolylamino)-2-methylthio-5-pyrimidinecarboxamide]	–	36%	55%	85%	20%	40%	70%	–
Nc1ccn([C@@H]2CS[C@H](CO)O2)c(=O)n1 [Example 3TC, lamivudine, reference compound]	–	–	–	–	48%	80%	99%	–
CCNC(=O)c1cnc(SC)nc1Nc1ccc2[nH]ncc2c1 [Example 5, N-ethyl-4-(1H-5-Indazolylamino)-2-methylthio-5-pyrimidinecarboxamide]	57%	20%	52%	70%	–	–	–	Inhibition of HIV reverse transcriptase activity ([1]; 1 μg/ml test compound): 80%
CSc1ncc(C(=O)NC2CC2)c(Nc2ccc3cn[nH]c3c2)n1 [Example 6, N-cyclopropyl-4-(1H-6-Indazolylamino)-2-methylthio-5-pyrimidinecarboxamide]	54%	24%	43%	74%	–	–	–	Inhibition of HIV reverse transcriptase activity ([1]; 1 μg/ml test compound): 78%
CSc1ncc(C(=O)NCCO)c(Nc2ccc3[nH]ncc3c2)n1 [Example 7, N-(2-Hydroxyethyl)-4-(1H-5-indazolylamino)-2-methylthio-5-pyrimidinecarboxamide]	–	48%	76%	93%	21%	61%	92%	–
CSc1ncc(C(=O)N(C)CCO)c(Nc2ccc3[nH]ncc3c2)n1 [Example 9, N-hydroxyethyl-N-methyl-4-(1H-5-indazolylamino)-2-methylthio-5-pyrimidine Carboxamide]	52%	30%	54%	75%	20%	48%	65%	Inhibition of HIV reverse transcriptase activity ([1]; 1 μg/ml test compound): 84%
CSc1ncc(C(=O)N(C)CCO)c(Nc2ccc3cn[nH]c3c2)n1 [Example 10, N-hydroxyethyl-N-methyl-4-(1H-6-indazolylamino)-2-methylthio-5-pyrimidinecarboxamide]	47%	22%	48%	70%	–	–	–	Inhibition of HIV reverse transcriptase activity ([1]; 1 μg/ml test compound): 80%
CC[C@H](CO)NC(=O)c1cnc(SC)nc1Nc1ccc2[nH]ncc2c1 [Example 11]	–	–	–	–	–	–	–	Inhibition activity on HBV-RT (%) (HBV polymerase; 0.01 μg/ml test compound): 44%; Inhibition activity on HBV-RT (%) (HBV polymerase; 0.1 μg/ml test compound): 59%; Inhibition activity on HBV-RT (%) (HBV polymerase; 1 μg/ml test compound): 82%
CC[C@H](CO)NC(=O)c1cnc(SC)nc1Nc1ccc2cn[nH]c2c1 [Example 12, N-[(1R)-1-(hydroxymethyl)propyl]-4-(1H-6-indazolylamino)-2-methylthio-5-pyrimidinecarboxamide]	–	36%	55%	85%	–	–	–	–
COCCNC(=O)c1cnc(SC)nc1Nc1ccc2[nH]ncc2c1 [Example 13, 4-(1H-5-indazolylamino)-N-(2-methoxyethyl)-2-methylthio-5-pyrimidinecarboxamide]	–	13%	40%	58%	–	–	–	–
COCCNC(=O)c1cnc(SC)nc1Nc1ccc2cn[nH]c2c1 [Example 14, 4-(1H-6-indazolylamino)-N-(2-methoxyethyl)-2-methylthio-5-pyrimidinecarboxamide]	–	25%	42%	60%	–	–	–	melting point: 225 to 228 °C
CSc1ncc(C(=O)NCCN2CCOCC2)c(Nc2ccc3cn[nH]c3c2)n1 [Example 20]	50%	–	–	–	–	–	–	Inhibition activity on HBV-RT (%) (HBV polymerase; 0.01 μg/ml test compound): 12%; Inhibition activity on HBV-RT (%) (HBV polymerase; 0.1 μg/ml test compound): 40%; Inhibition activity on HBV-RT (%) (HBV polymerase; 1 μg/ml test compound): 67%; Inhibitory effect on the activities of HIV reverse transcriptase, Inhibition activity on HBV-RT (%) ([1]; 1 μg/ml test compound): 89%
CSc1ncc(C(=O)NN2CCOCC2)c(Nc2ccc3[nH]ncc3c2)n1 [Example 35, 4-(1H-5-indazolylamino)-2-methylthio-N-(4-morpholinyl)-5-pyrimidinecarboxamide]	–	46%	61%	90%	29%	50%	86%	–
